Data taken from patent US10550116B2, “Fused bicyclic heterocycle derivatives as pesticides” (BAYER CROPSCIENCE AKTIENGESELLSCHAFT, priority 2015, dated 2020).

What was measured:
Tetranychus urticae = Tetranychus urticae spray test, OP-resistant; assay type: in vivo; conditions: foliar, 144 h, bean leaf discs, after 6 days, read-out: efficacy
Experimental: To produce a suitable active ingredient preparation, 1 part by weight of active ingredient is dissolved with the stated parts by weight of solvent and made up with water containing an emulsifier concentration of 1000 ppm until the desired concentration is attained. To produce further test concentrations, the preparation is diluted with emulsifier-containing water. Discs of bean leaves (Phaseolus vulgaris) infested with all stages of the greenhouse red spider mite (Tetranychus urticae) are sprayed with an active ingredient preparation of the desired concentration. After 6 days, the efficacy in % is determined. 100% means that all the spider mites have been killed; 0% means that no spider mites have been killed.

[1] = log P by HPLC on reversed-phase column (EEC Directive 79/831 Annex V.A8); assay type: physicochemical; conditions: reversed-phase C18 HPLC column; pH 7.8, aqueous ammonium hydrogencarbonate/acetonitrile; 55° C.; read-out: log P (neutral)
Experimental: The log P values are measured according to EEC Directive 79/831 Annex V.A8 by HPLC (high-performance liquid chromatography) on a reversed-phase column (C 18). Temperature: 55° C. The LC-MS determination in the acidic range is effected at pH 2.7 using 0.1% aqueous formic acid and acetonitrile (contains 0.1% formic acid) as eluents; linear gradient from 10% acetonitrile to 95% acetonitrile. Called log P (HCOOH) in the table. LC-MS determination in the neutral range is effected at pH 7.8 with 0.001 molar aqueous ammonium hydrogencarbonate solution and acetonitrile as eluents; linear gradient from 10% acetonitrile to 95% acetonitrile. Called log P (neutral) in the table. Calibration is carried out using unbranched alkan-2-ones (having 3 to 16 carbon atoms) with known log P values (log P values determined on the basis of the retention times by linear interpolation between two successive alkanones).

Spodoptera frugiperda = Spodoptera frugiperda spray test; assay type: in vivo; conditions: foliar, 168 h, caterpillars on maize leaf discs, after 7 days, read-out: efficacy
Experimental: (§1) To produce a suitable active ingredient preparation, 1 part by weight of active ingredient is dissolved with the stated parts by weight of solvent and made up with water containing an emulsifier concentration of 1000 ppm until the desired concentration is attained. To produce further test concentrations, the preparation is diluted with emulsifier-containing water. Leaf discs of maize (Zea mays) are sprayed with an active ingredient preparation of the desired concentration and, after drying, populated with caterpillars of the armyworm (Spodoptera frugiperda). After 7 days, the efficacy in % is determined. 100% means that all the caterpillars have been killed; 0% means that no caterpillar has been killed.

Phaedon cochleariae = Phaedon cochleariae spray test; assay type: in vivo; conditions: foliar, 168 h, larvae on Chinese cabbage leaf discs, after 7 days, read-out: efficacy
Experimental: as §1, with “water. Discs” for “water. Leaf discs”, “of Chinese cabbage leaves (Brassica pekinensis)” for “of maize (Zea mays)”, “with larvae” for “with caterpillars”, “the mustard beetle (Phaedon cochleariae).” for “the armyworm (Spodoptera frugiperda).”, “the beetle larvae” for “the caterpillars”, “no beetle larvae have” for “no caterpillar has”

Myzus persicae = Myzus persicae spray test; assay type: in vivo; conditions: foliar, Chinese cabbage leaf discs, after 5-6 days, read-out: efficacy
Experimental: To produce a suitable active ingredient preparation, 1 part by weight of active ingredient is dissolved with the stated parts by weight of solvent and made up with water containing an emulsifier concentration of 1000 ppm until the desired concentration is attained. To produce further test concentrations, the preparation is diluted with emulsifier-containing water. Discs of Chinese cabbage leaves (Brassica pekinensis) infested by all stages of the green peach aphid (Myzus persicae) are sprayed with an active ingredient preparation of the desired concentration. After 5-6 days, the efficacy in % is determined. 100% means that all the aphids have been killed; 0% means that no aphids have been killed.

Meloidogyne incognita = Meloidogyne incognita test; assay type: in vivo; conditions: 20 ppm; lettuce; after 14 days
Experimental: To produce a suitable preparation of active ingredient, 1 part by weight of active ingredient is mixed with the stated amount of solvent and the concentrate is diluted with water to the desired concentration. Vessels are filled with sand, active ingredient solution, an egg/larvae suspension of the southern root-knot nematode (Meloidogyne incognita) and lettuce seeds. The lettuce seeds germinate and the plants develop. The galls develop on the roots. After 14 days, the nematicidal efficacy in % is determined by the formation of galls. 100% means that no galls were found; 0% means that the number of galls on the treated plants corresponds to the untreated control.

CCSc1nc2ccccc2nc1-c1nc2cc(C(F)(F)F)ncc2n1C [Example I-4, 2-Ethylsulphanyl-3-[3-methyl-6-(trifluoromethyl)imidazo[4,5-c]pyridin-2-yl]quinoxaline]
pest or weed control at 100 g/ha (Tetranychus urticae): 70%
chromatographic logP [1]: 4.1

CCS(=O)(=O)c1cc2ccc(Cl)cc2nc1-c1nc2cc(C(F)(F)F)ncc2n1C [Example I-8, 7-Chloro-3-ethylsulphonyl-2-[3-methyl-6-(trifluoromethyl)imidazo[4,5-c]pyridin-2-yl]quinoline]
pest or weed control at 500 g/ha (Spodoptera frugiperda): 100%
pest or weed control at 500 g/ha (Phaedon cochleariae): 100%
pest or weed control at 500 g/ha (Myzus persicae): 90%
chromatographic logP [1]: 2.63

CCS(=O)(=O)c1cc2ccccc2nc1-c1cn2cnc(C(F)(F)F)cc2n1 [Example I-11, 3-(Ethylsulphonyl)-2-[7-(trifluoromethyl)imidazo[1,2-c]pyrimidin-2-yl]quinoline]
pest or weed control at 500 g/ha (Spodoptera frugiperda): 100%
pest or weed control at 500 g/ha (Phaedon cochleariae): 100%
pest or weed control at 500 g/ha (Myzus persicae): 70%
chromatographic logP [1]: 2.63

CCS(=O)(=O)c1cc2ccccc2nc1-c1nc2cc(C(F)(F)F)cnc2o1 [Example I-13]
pest or weed control at 500 g/ha (Spodoptera frugiperda): 83%
pest or weed control at 100 g/ha (Phaedon cochleariae): 100%
pest or weed control at 500 g/ha (Myzus persicae): 100%
chromatographic logP [1]: 3.27

CCS(=O)(=O)c1cc2ccccc2nc1-c1nc2cc(SC(F)(F)F)ccc2o1 [Example I-14, 2-(3-Ethylsulphonyl-2-quinolyl)-5-(trifluoromethylsulphanyl)-1,3-benzoxazole]
pest or weed control at 500 g/ha (Spodoptera frugiperda): 100%
pest or weed control at 500 g/ha (Phaedon cochleariae): 100%
pest or weed control at 500 g/ha (Myzus persicae): 90%
chromatographic logP [1]: 4.17

CCS(=O)(=O)c1cc2ccccc2nc1-c1nc2cc3c(cc2n1C)OC(F)(F)O3 [Example I-16, 6-(3-Ethylsulphonyl-2-quinolyl)-2,2-difluoro-7-methyl-[1,3]dioxolo[4,5-f]benzimidazole]
pest or weed control at 500 g/ha (Spodoptera frugiperda): 100%
pest or weed control at 500 g/ha (Phaedon cochleariae): 100%
pest or weed control at 500 g/ha (Myzus persicae): 90%
chromatographic logP [1]: 3.39

CCS(=O)(=O)c1cc2ccccc2nc1-c1nc2cc(S(=O)(=O)C(F)(F)F)ccc2o1 [Example I-18, 2-(3-Ethylsulphonyl-2-quinolyl)-5-(trifluoromethylsulphonyl)-1,3-benzoxazole]
pest or weed control at 100 g/ha (Spodoptera frugiperda): 100%
pest or weed control at 100 g/ha (Phaedon cochleariae): 100%
pest or weed control at 100 g/ha (Myzus persicae): 100%
pest or weed control at 100 g/ha (Tetranychus urticae): 70%
chromatographic logP [1]: 3.62

CCS(=O)(=O)c1cc2ccccc2nc1-c1nc2cc([S+]([O-])C(F)(F)F)ccc2o1 (centres unmarked) [Example I-19, 2-(3-Ethylsulphonyl-2-quinolyl)-5-(trifluoromethylsulphinyl)-1,3-benzoxazole]
pest or weed control at 100 g/ha (Spodoptera frugiperda): 100%
pest or weed control at 100 g/ha (Phaedon cochleariae): 100%
pest or weed control at 100 g/ha (Myzus persicae): 90%
chromatographic logP [1]: 3.05

CCS(=O)(=O)c1cc2ccccc2nc1-c1nc2cc(SC(F)(F)F)ccc2n1C [Example I-21, 3-Ethylsulphonyl-2-[1-methyl-5-(trifluoromethylsulphanyl)benzimidazol-2-yl]quinoline]
pest or weed control at 100 g/ha (Spodoptera frugiperda): 100%
pest or weed control at 100 g/ha (Phaedon cochleariae): 100%
pest or weed control at 100 g/ha (Myzus persicae): 100%
pest or weed control at 20 g/ha (Tetranychus urticae): 70%
chromatographic logP [1]: 3.96

CCS(=O)(=O)c1cc2ccccc2nc1-c1nc2cc(C(F)(F)F)nnc2n1C [Example I-22]
pest or weed control at 100 g/ha (Spodoptera frugiperda): 100%
pest or weed control at 100 g/ha (Myzus persicae): 100%
pest or weed control at 100 g/ha (Tetranychus urticae): 90%

CCS(=O)(=O)c1cc2ccccc2nc1-c1nc2cc([S+]([O-])C(F)(F)F)ccc2n1C (centres unmarked) [Example I-23, 3-Ethylsulphonyl-2-[1-methyl-5-(trifluoromethylsulphinyl)benzimidazol-2-yl]quinoline]
pest or weed control at 100 g/ha (Spodoptera frugiperda): 100%
pest or weed control at 100 g/ha (Phaedon cochleariae): 100%
pest or weed control at 100 g/ha (Myzus persicae): 100%
pest or weed control at 20 g/ha (Tetranychus urticae): 100%
chromatographic logP [1]: 2.79

CCSc1cc2ccccc2nc1-c1nc2cc(SC(F)(F)F)ccc2o1 [Example I-29, 2-(3-Ethylsulphanyl-2-quinolyl)-5-(trifluoromethylsulphanyl)-1,3-benzoxazole]
pest or weed control at 100 g/ha (Tetranychus urticae): 70%
chromatographic logP [1]: 5.43

CCSc1cc2ccccc2nc1-c1nc2cc(C(F)(F)F)ccc2o1 [Example I-32]
nematicidal efficacy (formation of galls) (Meloidogyne incognita): 100%

CCSc1cc2ccccc2nc1-c1nc2cc(SC(F)(F)F)ccc2n1C [Example I-34, 3-Ethylsulphanyl-2-[1-methyl-5-(trifluoromethylsulphanyl)benzimidazol-2-yl]quinoline]
pest or weed control at 100 g/ha (Tetranychus urticae): 100%
chromatographic logP [1]: 4.63

CC[S+]([O-])c1cc2ccccc2nc1-c1nc2cc3c(cc2[nH]1)OC(F)(F)O3 (centres unmarked) [Example I-36]
pest or weed control at 100 g/ha (Tetranychus urticae): 90%

CCSc1cc2ccccc2nc1-c1nc2cc(C(F)(F)C(F)(F)F)cnc2n1C [Example I-37]
pest or weed control at 100 g/ha (Tetranychus urticae): 90%

CCSc1cnc2nc(-c3nc4cc(C(F)(F)F)ncc4n3C)c(SCC)cc2c1 [Example I-40, 3,6-Bis(ethylsulphanyl)-2-[3-methyl-6-(trifluoromethyl)-3H-imidazo[4,5-c]pyridin-2-yl]-1,8-naphthyridine]
nematicidal efficacy (formation of galls) (Meloidogyne incognita): 90%
pest or weed control at 20 g/ha (Tetranychus urticae): 70%
chromatographic logP [1]: 3.23

CCSc1c(-c2nc3cc(C(F)(F)F)ncc3n2C)ncc2ccccc12 [I′-42]
pest or weed control at 500 g/ha (Myzus persicae): 90%
pest or weed control at 500 g/ha (Tetranychus urticae; 500 g/ha): 70%
